US11339169B2, “P2X3 and/or P2X2/3 compounds and methods” (Asana BioSciences, LLC, priority 2016, dated 2022)

What was measured:
hP2X3 = target: T1, hP2X3 (Homo sapiens, UniProt P56373); experiment: FLIPR intracellular calcium assay, hP2X3; assay type: cell-based; settings: human P2X3-HEK cells, agonist at EC75
T1 construct: host or cells: HEK (hP2X3-HEK)
T1 sequence (P56373 1-397): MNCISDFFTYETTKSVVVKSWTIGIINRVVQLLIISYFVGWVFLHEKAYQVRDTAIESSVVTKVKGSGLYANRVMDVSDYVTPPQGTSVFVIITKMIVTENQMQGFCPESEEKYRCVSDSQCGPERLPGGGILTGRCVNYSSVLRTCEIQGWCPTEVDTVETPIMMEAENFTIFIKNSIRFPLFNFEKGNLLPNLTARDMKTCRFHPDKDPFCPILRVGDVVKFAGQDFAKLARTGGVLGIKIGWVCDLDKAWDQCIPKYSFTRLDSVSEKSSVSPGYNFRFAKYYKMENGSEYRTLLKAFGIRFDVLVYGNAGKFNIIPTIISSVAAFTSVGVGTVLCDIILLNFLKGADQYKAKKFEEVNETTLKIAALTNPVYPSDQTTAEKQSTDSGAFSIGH
From the text: (§1) The FLIPR® assay utilizes cells which express human or rat P2X3 or P2X2/3 receptors. Recombinant cells expressing hP2X3 (Cat #6188) and hP2X2/3 (Cat #6179) were procured from Chantest Corp. Rat P2X2 (NCBI Accession No: U14414) was amplified by PCR from PC12 cDNA (a rat adrenal medulla cell line). The PCR product obtained containing the protein coding sequence of rat P2X2 was cloned into EcoRV-digested and dephosphorylated vector plRES-puro3 within the multiple cloning site (MCS). See, FIG. 1A.
(§2) (i) Intracellular Calcium Assay Protocol for Screening Compounds
(§3) Cryo-vial containing 6×10^6 cells (human P2X3-HEK/human P2X2/3-TRex293/rat P2X2/3-TRex293/rat P2X3 TRex-CHO) was thawed in a 37° C. water bath. Cells were suspended in 20 mL of respective cell plating media (See annexure for composition) in a 50 mL centrifuge tube. The cell viability was checked with the help of Trypan Blue dye. Upon washing, cells were plated in a black 384-well clear bottomed, sterile poly-D-lysine coated plate such that, each well contained 10,000 cells (15,000/well for hP2X3) in 30 μL cell plating media. The plate was incubated in a 5% CO2 incubator at 37° C. for 24 h.
(§4) The next day, prior to the assay, the cell plating media was removed from each well by decanting and gentle tapping. Thirty μL of FLIPR Calcium 4 dye solution was added to each well. The plate was incubated at 37° C. for 45 min (60 min for hP2X3). The plate was next equilibrated at room temperature for 15 minutes before placing it in a 384 well FLIPR for the assay.
(§5) Compounds were dissolved in DMSO and serially diluted following 11 point half log (3.16 fold) dilution with a starting concentration of 2 mM. Dilutions were mixed with assay buffer just before performing the assay.
(§6) Compounds were added to the respective wells of the assay-ready cell plate with the help of the FLIPR and fluorescence readings were captured for 5 min to observe any possible agonistic property of the compounds. The plate was then incubated at room temperature for 15 min. The cells were stimulated with respective agonist EC75 concentration and the fluorescence readings were captured for another 5 min by FLIPR. The difference in fluorescence readings in presence of the compounds were compared with that of the control wells (wells having no compound) to calculate the inhibitory potency of the compounds. The IC50 values of the compounds were determined using the Graph pad Prism software.
(§7) (ii) Cell Plating Media for hP2X3-HEK and hP2X2/3-TRex293 Cells • DMEM/F12 (1:1) HAM media (Invitrogen; Cat #11039) • 1×NEAA (Invitrogen; Cat #11140) • 25 mM HEPES (Invitrogen; Cat #15630) • 1 mM sodium pyruvate (Invitrogen; Cat #11360) • 10% tetracycline negative FBS (PAA; Cat #A15-209) • 1 μg/mL doxycycline (Clontech; Cat #63131) [for hP2X2/3-TRex293 cells only]
(§8) (v) Assay Buffer Composition • HBSS (Invitrogen Cat #14025) • 20 mM HEPES (Invitrogen Cat #15630) • 0.01% F127 (Sigma Cat #P2443) • 1.8 mM CaCl2 (Sigma Cat #C5080) • pH adjusted to 7.4
(§9) (vi) Dye Solution Composition • 1× FLIPR Calcium 4 dye in assay buffer (Molecular devices Cat #R8141) • 1.8 mM Probenecid (Sigma Cat #P8761) • pH adjusted to 7.4

hP2X2/3 = target: T2, hP2X2/3 (Homo sapiens, UniProt P56373+Q9UBL9); experiment: FLIPR intracellular calcium assay, hP2X2/3; assay type: cell-based; settings: human P2X2/3-TRex293 cells, agonist at EC75
T2 construct: host or cells: TRex293 (hP2X2/3-TRex293), doxycycline-induced
T2 sequence (P56373 1-397): T1 sequence (P56373 1-397)
T2 sequence (Q9UBL9 1-471): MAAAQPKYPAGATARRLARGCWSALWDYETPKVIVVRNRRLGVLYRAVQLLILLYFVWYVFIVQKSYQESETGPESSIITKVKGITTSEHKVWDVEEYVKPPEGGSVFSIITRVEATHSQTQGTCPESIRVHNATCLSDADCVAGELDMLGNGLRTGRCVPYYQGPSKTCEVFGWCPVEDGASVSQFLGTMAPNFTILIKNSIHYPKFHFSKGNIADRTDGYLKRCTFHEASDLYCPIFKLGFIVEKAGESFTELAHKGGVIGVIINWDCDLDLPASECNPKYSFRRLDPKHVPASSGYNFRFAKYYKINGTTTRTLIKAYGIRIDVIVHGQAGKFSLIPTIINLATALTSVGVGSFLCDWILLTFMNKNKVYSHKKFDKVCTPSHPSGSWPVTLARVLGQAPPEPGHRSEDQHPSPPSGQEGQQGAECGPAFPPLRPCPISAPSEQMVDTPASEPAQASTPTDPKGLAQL
From the text: as §1, §2, §3, §4, §5, §6, §7, §8, §9

| Compound | IC50 (hP2X3) [nM] | IC50 (hP2X2/3) [nM] |
| --- | --- | --- |
| CC(=O)N1CCN(c2nc(NC(C)(C)Cc3ccc(Cl)cc3)c3nn(C(C)C)c(C)c3n2)CC1 [Example 101] | 100 to 1000 | 1000 to 10000 |
| CC(=O)N1CCN(c2nc(N[C@H](C)c3cnc4ccccc4c3)c3nn(C(C)C)c(C)c3n2)CC1 [Example 102] | 1 to 100 | > 10000 |
| CC(=O)N1CCN(c2nc(N[C@H](C)c3cnc4ccccc4c3)c3nn(C(C)C)c(C#N)c3n2)CC1 [Example 103] | 1 to 100 | > 10000 |
| CC(=O)N1CCN(c2nc(N[C@H](C)c3cnc4ccccc4c3)c3c(n2)c(C#N)nn3C(C)C)CC1 [Example 104] | 1 to 100 | > 10000 |
| CCC(C)n1nc2c(N[C@H](C)c3cnc4ccccc4c3)nc(N3CCN(C(C)=O)CC3)nc2c1Br (stereo partly drawn) [Example 105] | 1 to 100 | 1000 to 10000 |
| CCC(C)n1nc2c(N[C@H](C)c3cnc4ccccc4c3)nc(N3CCN(C(C)=O)CC3)nc2c1C#N (stereo partly drawn) [Example 106] | 1 to 100 | 1000 to 10000 |
| CCC(C)n1ncc2nc(N3CCN(S(N)(=O)=O)CC3)nc(N[C@@H](c3cnc4ccccc4c3)C3CC3)c21 (stereo partly drawn) [Example 108, 4-{1-sec-Butyl-7-[((R)-cyclopropyl-quinolin-3-yl-methyl)-amino]-1H-pyrazolo[4,3-d]pyrimidin-5-yl}-piperazine-1-sulfonic acid amide] | 1 to 100 | 1000 to 10000 |
| CCC(C)n1ncc2nc(N3CCN(C(N)=NC#N)CC3)nc(N[C@@H](c3cnc4ccccc4c3)C3CC3)c21 (stereo partly drawn) [Example 110, 4-(1-sec-butyl-7-{[(R)-cyclopropyl(quinolin-3-yl)methyl]amino}-1H-pyrazolo[4,3-d]pyrimidin-5-yl)-N′-cyanopiperazine-1-carboximidamide] | 1 to 100 | 1 to 100 |
| CCC(C)n1ncc2nc(N3CCN(/C(N)=N\C#N)CC3)nc(N[C@H](C)c3cnc4ccccc4c3)c21 (stereo partly drawn) [Example 111, 4-(1-sec-butyl-7-{[(R)-methyl(quinolin-3-yl)methyl]amino}-1H-pyrazolo[4,3-d]pyrimidin-5-yl)-N′-cyanopiperazine-1-carboximidamide] | 1 to 100 | 1 to 100 |
| CCC(C)n1ncc2nc(N3CCN(C(=N)N)CC3)nc(N[C@@H](c3cnc4ccccc4c3)C3CC3)c21 (stereo partly drawn) [Example 112, 4-{1-sec-Butyl-7-[((R)-cyclopropyl-quinolin-3-yl-methyl)-amino]-1H-pyrazolo[4,3-d]pyrimidin-5-yl}-piperazine-1-carboxamidine] | 1 to 100 | 1 to 100 |

The next lines start with the values.

| IC50 (hP2X3) [nM] | IC50 (hP2X2/3) [nM] | Compound |
| --- | --- | --- |
| 1 to 100 | 1000 to 10000 | CC(=O)N1CCN(c2nc(NC(C)c3cnc4ccccc4c3)c3nn(C(C)C)c(Br)c3n2)CC1 (stereo not drawn) [Example 94] |
| 1 to 100 | > 10000 | CC(=O)N1CCN(c2nc(NC(C)c3cnc4ccccc4c3)c3nn(C(C)C)c(C)c3n2)CC1 (stereo not drawn) [Example 96] |
| 1 to 100 | 1000 to 10000 | CC(=O)N1CCN(c2nc(N[C@H](C)c3cnc4ccccc4c3)c3nn(C(C)C)c(Br)c3n2)CC1 [Example 98] |
| 1 to 100 | 1000 to 10000 | CC(=O)N1CCN(c2nc(N[C@H](C)c3cnc4ccccc4c3)c3nn(C(C)C)c(Cl)c3n2)CC1 [Example 99] |
| 1 to 100 | 1000 to 10000 | CC(=O)N1CCN(c2nc(N[C@H](C)c3cnc4ccccc4c3)c3c(n2)c(Br)nn3C(C)C)CC1 [Example 100] |
